This note sets out measurements from article PMC9940855, “First-in-Class Dual Hybrid Carbonic Anhydrase Inhibitors and Transient Receptor Potential Vanilloid 1 Agonists Revert Oxaliplatin-Induced Neuropathy” (Journal of Medicinal Chemistry, 2023).

The target in one experiment is T1, hCA IX (Homo sapiens, UniProt Q16790).
T1 construct: made in house
The format is biochemical.

The target of another experiment is hCA I (Homo sapiens, UniProt P00915). To be noted: read-out: KI hCA I; stopped-flow CO2 hydrase assay; mean from three different assays, errors ±5–10%.
Sequence of hCA I (P00915 whole entry): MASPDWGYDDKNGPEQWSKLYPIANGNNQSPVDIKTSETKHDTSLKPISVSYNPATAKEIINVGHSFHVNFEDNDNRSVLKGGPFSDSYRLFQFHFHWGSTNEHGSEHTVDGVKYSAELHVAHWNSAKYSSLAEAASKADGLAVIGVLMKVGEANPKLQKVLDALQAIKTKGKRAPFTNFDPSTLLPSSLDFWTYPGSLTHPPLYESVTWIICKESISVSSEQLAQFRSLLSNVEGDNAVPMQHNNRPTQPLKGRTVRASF
The next experiment concerns the target hCA II (Homo sapiens, UniProt P00918). To be noted: read-out: KI hCA II; stopped-flow CO2 hydrase assay; mean from three different assays, errors ±5–10%.
A further experiment has as its target hCA VII (Homo sapiens, UniProt P43166). To be noted: read-out: KI hCA VII; stopped-flow CO2 hydrase assay; mean from three different assays, errors ±5–10%.
Another experiment has as its target hCA XII (Homo sapiens, UniProt O43570). The note with it: read-out: KI hCA XII; stopped-flow CO2 hydrase assay; mean from three different assays, errors ±5–10%.
The next experiment addresses hCA IV (Homo sapiens, UniProt P22748). The note with it: read-out: KI hCA IV; stopped-flow CO2 hydrase assay; mean from three different assays, errors ±5–10%.

SMILES strings stand for the structures.

Sequence of hCA IV (P22748 19-312): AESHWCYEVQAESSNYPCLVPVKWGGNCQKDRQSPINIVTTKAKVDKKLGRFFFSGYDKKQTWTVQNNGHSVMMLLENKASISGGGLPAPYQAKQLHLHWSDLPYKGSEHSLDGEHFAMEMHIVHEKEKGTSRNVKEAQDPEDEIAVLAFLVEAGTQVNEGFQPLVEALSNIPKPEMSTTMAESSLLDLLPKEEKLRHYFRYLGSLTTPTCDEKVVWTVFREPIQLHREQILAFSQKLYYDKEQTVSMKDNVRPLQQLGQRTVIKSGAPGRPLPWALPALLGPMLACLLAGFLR
Sequence of hCA XII (O43570 25-354): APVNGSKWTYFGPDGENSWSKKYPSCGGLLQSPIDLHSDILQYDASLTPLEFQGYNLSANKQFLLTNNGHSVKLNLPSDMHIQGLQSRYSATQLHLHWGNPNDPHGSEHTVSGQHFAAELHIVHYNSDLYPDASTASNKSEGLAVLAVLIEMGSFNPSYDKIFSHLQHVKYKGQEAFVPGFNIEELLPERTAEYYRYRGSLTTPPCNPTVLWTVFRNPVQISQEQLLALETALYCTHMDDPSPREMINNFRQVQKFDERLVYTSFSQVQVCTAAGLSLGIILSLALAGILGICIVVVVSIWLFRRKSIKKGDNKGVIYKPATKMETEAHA
Sequence of hCA VII (P43166 whole entry): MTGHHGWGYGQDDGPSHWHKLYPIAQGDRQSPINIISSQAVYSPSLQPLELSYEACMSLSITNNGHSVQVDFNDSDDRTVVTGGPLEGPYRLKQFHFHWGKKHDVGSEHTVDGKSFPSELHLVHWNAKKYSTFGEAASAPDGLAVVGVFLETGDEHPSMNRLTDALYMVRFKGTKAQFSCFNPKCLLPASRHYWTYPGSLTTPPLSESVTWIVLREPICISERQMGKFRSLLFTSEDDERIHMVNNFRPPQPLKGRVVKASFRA

As usually defined, the Ki is a dissociation constant, usually derived from enzyme kinetics or from competition with a known ligand. In the case of `NS(=O)(=O)c1ccc(N2CC[C@H](NC(=O)Nc3ccc([N+](=O)[O-])cc3)C2)nc1` [19b, (S)-6-(3-(3-(4-Nitrophenyl)ureido)pyrrolidin-1-yl)pyridine-3-sulfonamide], the inhibition constant Ki at hCA IX was determined as 67.5 nM; on hCA I, 800 nM; on hCA II, 525 nM; at hCA VII it was 8.2 nM; on hCA XII it was 8.5 nM.

For `NS(=O)(=O)c1ccc(N2CC[C@H](NC(=O)Nc3ccccc3F)C2)nc1` [11b, (S)-6-(3-(3-(2-Fluorophenyl)ureido)pyrrolidin-1-yl)pyridine-3-sulfonamide], the figures for the inhibitory constant (Ki) at hCA I, at hCA VII and on hCA XII were 476 nM, 11.6 nM and 43.9 nM, respectively.

Turning to `NS(=O)(=O)c1ccc(N2CC[C@H](NC(=O)Nc3ccc(Cl)c(Cl)c3)C2)nc1` [14b, (S)-6-(3-(3-(3,4-Dichlorophenyl)ureido)pyrrolidin-1-yl)pyridine-3-sulfonamide], the inhibition constant Ki at hCA II amounted to 556 nM; at hCA IV, 2530 nM; at hCA VII, 12.1 nM; on hCA XII, 44.6 nM.

Regarding `NS(=O)(=O)c1ccc(N2CC[C@H](NC(=O)Nc3ccc(Oc4ccccc4)cc3)C2)nc1` [13b, (S)-6-(3-(3-(4-Phenoxyphenyl)ureido)pyrrolidin-1-yl)pyridine-3-sulfonamide], the Ki at hCA IX stood at 89.8 nM; on hCA VII, 52 nM; on hCA XII, 89.9 nM.

Consider `NS(=O)(=O)c1ccc(N2CC[C@@H](NC(=O)Nc3cc(C(F)(F)F)cc(C(F)(F)F)c3)C2)nc1` [16a, (R)-6-(3-(3-(3,5-Bis(trifluoromethyl)phenyl)ureido)pyrrolidin-1-yl)pyridine-3-sulfonamide], for which the inhibitory constant (Ki) at hCA IX turned out to be 1440 nM; on hCA I, 903 nM; at hCA IV, 5160 nM; at hCA VII it was 40.8 nM; on hCA XII, 37.9 nM.

Consider `NS(=O)(=O)c1ccc(N2CC[C@@H](NC(=S)Nc3ccccc3)C2)nc1` [9a, (R)-6-(3-(3-Phenylthioureido)pyrrolidin-1-yl)pyridine-3-sulfonamide], for which the Ki was 25.5 nM on hCA IX; 164 nM at hCA I; 3730 nM on hCA IV; 8.5 nM on hCA VII; 59.3 nM at hCA XII.

`NS(=O)(=O)c1ccc(N2CC[C@H](NC(=O)Nc3c(F)cc(F)cc3Br)C2)nc1` [22b, (S)-6-(3-(3-(2-Bromo-4,6-difluorophenyl)ureido)pyrrolidin-1-yl)pyridine-3-sulfonamide]: the Ki on hCA II is 482 nM; at hCA IV, 8200 nM; at hCA VII it was 14 nM; on hCA XII it was 8.2 nM.

In the case of `NS(=O)(=O)c1ccc(N2CC[C@H](NC(=O)Nc3cc(C(F)(F)F)cc(C(F)(F)F)c3)C2)nc1` [16b, (S)-6-(3-(3-(3,5-Bis(trifluoromethyl)phenyl)ureido)pyrrolidin-1-yl)pyridine-3-sulfonamide], the Ki on hCA IX was determined as 54.9 nM; on hCA I, 625 nM; at hCA IV, 2500 nM; on hCA VII, 8.3 nM; on hCA XII, 9.4 nM.

As for `NS(=O)(=O)c1cccc(NC(=S)N[C@H]2CCN(c3ccc(C(F)(F)F)cn3)C2)c1` [40b, (S)-3-(3-(1-(5-(Trifluoromethyl)pyridin-2-yl)pyrrolidin-3-yl)thioureido)benzenesulfonamide], the inhibition constant (Ki) turned out to be 7.9 nM at hCA IX, 413 nM on hCA I and 14.2 nM at hCA VII.

As for `NS(=O)(=O)c1ccc(N2CC[C@@H](NC(=O)Nc3ccc(C(F)(F)F)cc3)C2)nc1` [20a, (R)-6-(3-(3-(4-(Trifluoromethyl)phenyl)ureido)pyrrolidin-1-yl)pyridine-3-sulfonamide], the Ki turned out to be 409 nM at hCA II and 44.2 nM at hCA XII.

On to `NS(=O)(=O)c1ccc(N2CC[C@H](NC(=O)Nc3ccccc3Cl)C2)nc1` [12b, (S)-6-(3-(3-(2-Chlorophenyl)ureido)pyrrolidin-1-yl)pyridine-3-sulfonamide], for which the Ki at hCA IX is 22.9 nM; on hCA I, 393 nM; on hCA IV, 2030 nM; on hCA VII it was 0.9 nM; at hCA XII, 41.7 nM.

Turning to `NS(=O)(=O)c1ccc(N2CC[C@H](NC(=O)Nc3ccc(C(F)(F)F)cc3)C2)nc1` [20b, (S)-6-(3-(3-(4-(Trifluoromethyl)phenyl)ureido)pyrrolidin-1-yl)pyridine-3-sulfonamide], the inhibition constant (Ki) at hCA II stood at 35.3 nM; on hCA XII it was 48.7 nM.

`NS(=O)(=O)c1ccc(N2CCC(NC(=O)Nc3ccc(Cl)c(C(F)(F)F)c3)C2)nc1` (stereo in doubt) [10b, (R)-6-(3-(3-(4-Chloro-3-(trifluoromethyl)phenyl)ureido)pyrrolidin-1-yl)pyridine-3-sulfonamide]: the Ki was determined as 77.5 nM on hCA IX, 707 nM at hCA I, 8520 nM on hCA IV and 15.6 nM on hCA VII.

For the compound `NS(=O)(=O)c1ccc(N2CC[C@@H](NC(=S)Nc3ccc(F)cc3)C2)nc1` [8a, (R)-6-(3-(3-(4-Fluorophenyl)thioureido)pyrrolidin-1-yl)pyridine-3-sulfonamide], the Ki stood at 30.8 nM on hCA IX, 3120 nM at hCA IV, 8.6 nM at hCA VII and 39.5 nM on hCA XII.

For the compound `NS(=O)(=O)c1ccc(N2CC[C@H](NC(=S)Nc3ccc(F)cc3)C2)nc1` [8b, (S)-6-(3-(3-(4-Fluorophenyl)thioureido)pyrrolidin-1-yl)pyridine-3-sulfonamide], the inhibition constant (Ki) turned out to be 27.3 nM at hCA IX, 2700 nM at hCA IV, 2.6 nM at hCA VII and 35.4 nM on hCA XII.

Turning to `NS(=O)(=O)c1ccc(N2CC[C@H](NC(=O)Nc3ccc(F)cc3)C2)nc1` [7b, (S)-6-(3-(3-(4-Fluorophenyl)ureido)pyrrolidin-1-yl)pyridine-3-sulfonamide], the Ki on hCA IX came out at 20.2 nM; on hCA II, 187 nM; at hCA IV, 8240 nM; at hCA VII, 12.1 nM; at hCA XII, 50.3 nM.

Regarding `NS(=O)(=O)c1ccc(N2CC[C@H](NC(=O)NS(=O)(=O)c3ccccc3Cl)C2)nc1` [25b, (S)-6-(3-(3-((2-Chlorophenyl)sulfonyl)ureido)pyrrolidin-1-yl)pyridine-3-sulfonamide], the inhibition constant Ki on hCA IX is 9.7 nM; on hCA I, 89.2 nM; on hCA II it was 38.5 nM; at hCA IV, 911 nM; at hCA VII, 46.4 nM.

Take `NS(=O)(=O)c1cccc(NC(=O)N[C@H]2CCN(c3ccc(C(F)(F)F)cn3)C2)c1` [46b, (S)-3-(3-(1-(5-(Trifluoromethyl)pyridin-2-yl)pyrrolidin-3-yl)ureido)benzenesulfonamide]: the Ki at hCA I was 306 nM; at hCA II, 8.9 nM; at hCA XII, 8.9 nM.

As to `NS(=O)(=O)c1ccc(N2CC[C@@H](NC(=O)NS(=O)(=O)c3ccccc3Cl)C2)nc1` [25a, (R)-6-(3-(3-((2-Chlorophenyl)sulfonyl)ureido)pyrrolidin-1-yl)pyridine-3-sulfonamide], the Ki at hCA IX worked out at 9.2 nM; at hCA I, 72.3 nM; on hCA II it was 15.4 nM; at hCA IV it was 704 nM; on hCA VII, 30.1 nM.

With `NS(=O)(=O)c1ccc(N2CC[C@H](NC(=S)Nc3ccccc3)C2)nc1` [9b, (S)-6-(3-(3-Phenylthioureido)pyrrolidin-1-yl)pyridine-3-sulfonamide], the inhibition constant (Ki) on hCA IX is 54.1 nM; on hCA I it was 321 nM; at hCA IV it was 9480 nM; at hCA VII it was 11.6 nM; on hCA XII it was 23.4 nM.
